Measurements published in patent US20210063414A1, “METHODS FOR PREVENTING AND/OR TREATING BONE LOSS CONDITIONS BY MODULATING IRISIN” (Dana-Farber Cancer Institute, Inc., priority 2018, published 2021).

Tested on: inguinal fat
Assay: Irisin injection in mice: Ucp1/Dio2 mRNA and Ucp1 protein in inguinal fat
Format: in vivo
Settings: mice, co-injection with irisin
Description: FIG. 18A-FIG. 18B show mRNA and protein levels of indicated genes. 1 mg/kg irisin was injected to 8-week old mice every other day for 6 days. mRNA levels of indicated genes in inguinal fat were analyzed by qRT-PCR. Cyclophilin was used for housekeeping gene (FIG. 18A). Inguinal fats were also lysed to detect the indicated protein level using immunoblot analysis (FIG. 18B). FIGS. 18C and 18D show mRNA and protein levels of indicated genes. Mice were treated and analyzed as (A-B) with addition of coinjection of […] control RGD peptide or cyclo RGDyK (cRGDyK). mRNA levels of indicated genes in inguinal fat were analyzed by qRT-PCR. Cyclophilin was used for house-keeping gene (FIG. 18C). Inguinal fats were also lysed to detect the indicated protein level using immunoblot analysis (FIG. 18D). […] Ucp1 mRNA level was analyzed by qRT-PCR. […]
RNA was extracted from cultured cells or frozen tissues using TRIzol® (Thermo Fischer Scientific) and purified with RNeasy® mini kit (QIAGEN 74106). […] To perform qRT-PCR analysis, normalized RNA was reverse transcribed using a high-capacity cDNA reverse-transcription kit (Applied Biosystems™). cDNA was analyzed by qRT-PCR with indicated primers. Relative mRNA levels were calculated using the comparative CT method and normalized to cyclophilin mRNA. […]

With `N=C(N)NCCC[C@@H]1NC(=O)[C@H](CCCCN)NC(=O)[C@@H](Cc2ccc(O)cc2)NC(=O)[C@H](CC(=O)O)NC(=O)CNC1=O` [cyclo RGDyK] the “effect on irisin induction of the protein level of Ucp1” value was “blocked” and the “effect on irisin-induced gene expression of Ucp1 and Dio2” value was “blocked”.
